# Key:
# [1] = target: seasonal influenza B virus neuraminidase (NA) (Influenza B virus, UniProt C0LT34); type: biochemical
# [2] = target: seasonal influenza A(H3N2) virus neuraminidase (NA) (Influenza A virus, UniProt V9SU56); type: biochemical
compound,measurement,setting,value
"CCOC(=O)C1=C[C@@H](OC(CC)CC)[C@H](NC(C)=O)[C@@H](N)C1 [oseltamivir, Oseltamivir]",susceptibility to oseltamivir (WHO definition),[1],sensitive
same,susceptibility to oseltamivir (WHO definition),[2],sensitive

# — paper PMC5559489 (Scientific Reports, 2017)
